Columns and labels:
Toll-like receptor 7 [1] = target: T1, Toll-like receptor 7 (Homo sapiens, UniProt Q9NYK1)
T1 sequence (Q9NYK1 whole entry): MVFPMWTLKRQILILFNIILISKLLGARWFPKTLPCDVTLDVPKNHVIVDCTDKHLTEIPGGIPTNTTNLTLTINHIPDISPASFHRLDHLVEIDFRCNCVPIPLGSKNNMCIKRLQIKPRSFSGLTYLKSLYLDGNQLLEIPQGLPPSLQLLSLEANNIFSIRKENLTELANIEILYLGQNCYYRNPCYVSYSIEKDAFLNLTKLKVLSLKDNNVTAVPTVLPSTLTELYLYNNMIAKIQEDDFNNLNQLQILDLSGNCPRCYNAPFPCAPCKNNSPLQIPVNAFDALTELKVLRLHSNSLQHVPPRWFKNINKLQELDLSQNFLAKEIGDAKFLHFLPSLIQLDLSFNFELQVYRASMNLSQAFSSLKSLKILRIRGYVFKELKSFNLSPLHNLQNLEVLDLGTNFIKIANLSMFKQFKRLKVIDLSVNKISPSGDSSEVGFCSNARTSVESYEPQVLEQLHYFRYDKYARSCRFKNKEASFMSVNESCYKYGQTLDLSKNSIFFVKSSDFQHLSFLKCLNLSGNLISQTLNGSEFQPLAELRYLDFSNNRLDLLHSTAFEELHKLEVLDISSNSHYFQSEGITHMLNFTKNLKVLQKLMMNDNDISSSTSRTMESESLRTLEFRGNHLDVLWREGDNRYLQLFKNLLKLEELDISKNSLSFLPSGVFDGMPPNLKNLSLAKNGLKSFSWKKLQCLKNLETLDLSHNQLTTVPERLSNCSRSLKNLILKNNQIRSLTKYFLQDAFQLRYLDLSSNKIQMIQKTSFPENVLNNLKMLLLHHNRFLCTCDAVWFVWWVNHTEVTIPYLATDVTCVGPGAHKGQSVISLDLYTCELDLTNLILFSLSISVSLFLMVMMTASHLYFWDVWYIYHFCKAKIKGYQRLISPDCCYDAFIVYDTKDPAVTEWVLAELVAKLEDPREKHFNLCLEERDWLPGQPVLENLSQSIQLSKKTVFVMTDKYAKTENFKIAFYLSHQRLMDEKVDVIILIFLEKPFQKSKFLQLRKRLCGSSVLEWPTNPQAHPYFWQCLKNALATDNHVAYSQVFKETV

Toll-like receptor 7 [2] = target: T1, Toll-like receptor 7; assay: Agonist activity at TLR7 expressed in HEK293 cells assessed as increase in NF-kappaB activation at 25 ug/mL by SEAP assay; format: functional, cell-based

Row | Structure (SMILES) | IC50 (Toll-like receptor 7 [1]) | IC50 (Toll-like receptor 7 [2])
1 | CCNCc1nc2c3ccccc3ncc2n1CC(C)(C)O | 7.5 µM | –
2 | CCNCc1nc2c3ccccc3nc(N)c2n1CC(C)(C)O.O=C(O)C(F)(F)F.O=C(O)C(F)(F)F | 25 µM | Not Active

Reference: ChEMBL document CHEMBL1153973, “Regioisomerism-dependent TLR7 agonism and antagonism in an imidazoquinoline” (Bioorg Med Chem Lett, 2009)
